Values of other authors as cited in publication PMC7395068, “The evolution of strategies to minimise the risk of human drug-induced liver injury (DILI) in drug discovery and development” (Archives of Toxicology, 2020).
Read-outs that look alike come from different tables or passages of the source.

Tests used:
[1] = cited from earlier work
[2] = tested on: isolated mouse liver mitochondria; details: cited from earlier work
HepG2 cells = details: cited from earlier work
[3] = cited from earlier work; remark: listed apart in the source
human hepatocytes = details: In vitro Assay; ref Xu 2008; cited from earlier work
[4] = tested on: THLE or HepG2 cells, isolated mitochondria, BSEP; details: cited from earlier work
[5] = tested on: primary human hepatocytes, NIH3T3 fibroblasts, BSEP, CYP3A4; details: In vitro Assay; ref Schadt 2015; cited from earlier work
[6] = In vitro Assay, ref Porceddu 2012
[7] = In vitro Assay, ref Persson 2013

SMILES	In vivo DILI ([1]; ref Porceddu 2012)	in vitro data EC2<=1x Cmax [2, 6]	in vitro data EC20<=2uM [2, 6]	DILI +VE (5-8), DILI -VE (-4) ([3]; ref Chen 2016)	DILI severity category ([3]; ref Chen 2016)	other results
C[C@@H]1O[C@@H](OC[C@H]2O[C@@H](Oc3c(-c4ccc(OCCO)c(OCCO)c4)oc4cc(OCCO)cc(O)c4c3=O)[C@H](O)[C@@H](O)[C@@H]2O)[C@H](O)[C@H](O)[C@H]1O [Troxerutin]	-VE	-VE	+VE			
CCN1CCCC1CNC(=O)c1cc(S(=O)(=O)CC)c(N)cc1OC (stereo not shown) [amisulpride]						Cluser analysis (HepG2 cells; [7]): -VE; Structural based (HCI) (HepG2 cells; [7]): -VE; In vivo DILI ([1]; ref Persson 2013): -VE
O=[As]O[As]=O (stereo not shown) [arsenic trioxide]	+VE	-VE	+VE	-VE	Ambiguous DILI-concern	
C=CC1=C(C(=O)O)N2C(=O)[C@@H](NC(=O)/C(=N\OCC(=O)O)c3csc(N)n3)[C@H]2SC1 [cefixime]	+VE	+VE	-VE	-VE	Ambiguous DILI-concern	
O=C(O)CCCc1ccc(N(CCCl)CCCl)cc1 [chlorambucil]	+VE	+VE	+VE	+VE	vLess-DILI-Concern	
Clc1ccccc1C(c1ccccc1)(c1ccccc1)n1ccnc1 [clotrimazole]	+VE	+VE	+VE	+VE	vLess-DILI-Concern	Structural based (HCI) (human hepatocytes): -VE; Partition Hybrid HRM Score ([4]; In vitro Assay, ref Aleo 2019): +VE; Ro2 Hybrid HRM Score ([4]; In vitro Assay, ref Aleo 2019): +VE; In vivo DILI ([1]; […]): -VE; In vivo DILI ([1]; ref Aleo 2019): +VE; In vivo DILI ([1]; ref Xu 2008): -VE
COc1cccc2c1C(=O)c1c(O)c3c(c(O)c1C2=O)C[C@@](O)(C(C)=O)C[C@@H]3O[C@H]1C[C@H](N)[C@H](O)[C@H](C)O1 [daunorubicin]	+VE	+VE	+VE	-VE	vNo-DILI-Concern	
CC1=NS(=O)(=O)c2cc(Cl)ccc2N1 [diazoxide]	-VE	+VE	-VE	-VE	Ambiguous DILI-concern	
O=C(O)c1cc(-c2ccc(F)cc2F)ccc1O [diflunisal]	+VE	+VE	+VE	+VE	vMost-DILI-Concern	Structural based (HCI) (human hepatocytes): +VE; In vivo DILI ([1]; ref Xu 2008): +VE
C#Cc1cccc(Nc2ncnc3cc(OCCOC)c(OCCOC)cc23)c1 [erlotinib]	+VE	+VE	+VE	+VE	vMost-DILI-Concern	
CC(C)(C(=O)O)c1ccc(C(O)CCCN2CCC(C(O)(c3ccccc3)c3ccccc3)CC2)cc1 (stereo not shown) [fexofenadine]						Cluser analysis (HepG2 cells): -VE
Nc1nc2ncc(CNc3ccc(C(=O)N[C@@H](CCC(=O)O)C(=O)O)cc3)nc2c(=O)[nH]1 [folic acid]		+VE				Partition Hybrid HRM Score ([4]; In vitro Assay, ref Aleo 2019): -VE; Ro2 Hybrid HRM Score ([4]; In vitro Assay, ref Aleo 2019): -VE
COc1cc2ncnc(Nc3ccc(F)c(Cl)c3)c2cc1OCCCN1CCOCC1 [gefitinib]		+VE				Partition Hybrid HRM Score ([4]; In vitro Assay, ref Aleo 2019): +VE; Ro2 Hybrid HRM Score ([4]; In vitro Assay, ref Aleo 2019): +VE
O=c1c(-c2ccc(O)cc2)coc2cc(O)cc(O)c12 [genistein]						In vivo DILI ([1]; in vivo): -VE; in vitro data EC20<=2uM [2]: +VE
Cc1ccc(NC(=O)c2ccc(CN3CCN(C)CC3)cc2)cc1Nc1nccc(-c2cccnc2)n1 [imatinib]		+VE				DILI +VE (5-8), DILI -VE (-4) ([3]; in vivo): +VE; DILI severity category ([3]; in vivo): vMost-DILI-Concern; In vivo DILI ([1]; in vivo): +VE
Nc1ccn([C@@H]2CS[C@H](CO)O2)c(=O)n1 [lamivudine]		+VE				DILI +VE (5-8), DILI -VE (-4) ([3]; in vivo): +VE; DILI severity category ([3]; in vivo): vLess-DILI-Concern; Partition Hybrid HRM Score [4]: -VE
[Cl][Mn][Cl] [manganese chloride]	-VE	-VE	-VE			
Cc1c(O)cccc1C(=O)N[C@@H](CSc1ccccc1)[C@H](O)CN1C[C@H]2CCCC[C@H]2C[C@H]1C(=O)NC(C)(C)C [nelfinavir]	+VE	+VE	+VE	+VE	vLess-DILI-Concern	
CC(C)c1nc(CN(C)C(=O)N[C@H](C(=O)N[C@@H](Cc2ccccc2)C[C@H](O)[C@H](Cc2ccccc2)NC(=O)OCc2cncs2)C(C)C)cs1 [ritonavir]	+VE	+VE	+VE	+VE	vMost-DILI-Concern	Partition Hybrid HRM Score ([4]; In vitro Assay, ref Aleo 2019): +VE; Ro2 Hybrid HRM Score ([4]; In vitro Assay, ref Aleo 2019): +VE; In vivo DILI ([1]; ref Aleo 2019): +VE; In vivo DILI ([1]; ref Schadt 2015): +VE
CC[C@H]1OC(=O)[C@H](C)[C@@H](O[C@H]2C[C@@](C)(OC)[C@@H](O)[C@H](C)O2)[C@H](C)[C@@H](O[C@@H]2O[C@H](C)C[C@H](N(C)C)[C@H]2O)[C@](C)(O)C[C@@H](C)/C(=N\OCOCCOC)[C@H](C)[C@@H](O)[C@]1(C)O [roxithromycin]	+VE	+VE	-VE			
CC(C)(C)NC(=O)[C@@H]1C[C@@H]2CCCC[C@@H]2CN1C[C@@H](O)[C@H](Cc1ccccc1)NC(=O)[C@H](CC(N)=O)NC(=O)c1ccc2ccccc2n1 [saquinavir]	+VE	+VE	+VE	+VE	vLess-DILI-Concern	In vivo DILI ([1]; ref Schadt 2015): -VE
CNC(=O)c1cc(Oc2ccc(NC(=O)Nc3ccc(Cl)c(C(F)(F)F)c3)cc2)ccn1 [sorafenib]	+VE	+VE	-VE	+VE	vMost-DILI-Concern	Partition Hybrid HRM Score ([4]; In vitro Assay, ref Aleo 2019): +VE; Ro2 Hybrid HRM Score ([4]; In vitro Assay, ref Aleo 2019): +VE; In vivo DILI ([1]; ref Aleo 2019): +VE
CNS(=O)(=O)Cc1ccc2[nH]cc(CCN(C)C)c2c1 [sumatriptan]	-VE	-VE	-VE	-VE	Ambiguous DILI-concern	Structural based (HCI) (human hepatocytes): -VE; In vivo DILI ([1]; ref Xu 2008): -VE
COc1cccc(C2(O)CCCCC2CN(C)C)c1 (stereo not shown) [tramadol]	+VE	-VE	-VE	-VE	Ambiguous DILI-concern	
CC[C@]1(O)C[C@@H]2CN(CCc3c([nH]c4ccccc34)[C@@](C(=O)OC)(c3cc4c(cc3OC)N(C)[C@H]3[C@@](O)(C(=O)OC)[C@H](OC(C)=O)[C@]5(CC)C=CCN6CC[C@]43[C@@H]65)C2)C1 [vinblastine]		-VE				Cellular toxicity (3T3 cells) [5]: -VE; GSH adduct HML [5]: -VE; Hepatocyte cellular toxicity [5]: +VE; MitoTox 3T3 [5]: +VE; TDI CYP3A4 [5]: +VE; hBSEP inhibition [5]: +VE
